This is an account of results in patent US20240041833A1, “PHARMACEUTICAL COMBINATION PRODUCT COMPRISING A PROTOPARVOVIRUS AND AN ANTIVIRAL BENZIMIDAZOLE AND USES THEREOF FOR TREATING CANCER” (priority 2020, published 2024).

The subject of data set [1] is SNB-19 and U-373 glioma cells. As to conditions: drug 4-0.156 μM in combination with H-1PV MOI 1 pfu/cell, 72 h; compared to cells infected only with H-1PV. Here is the method: The screening was performed with the Agilent BioCel automated workstation housed in an Ermaflux L2 biosafety cabinet (equipped with charcoal filters to trap gases). The glioma cell lines SNB-19 and U-373 were used for the screening. Cells were seeded with the BRAVO pipettor in 384 well cell culture microplate at 15% confluence in medium supplemented with 10% FBS and penicillin/streptomycin. After overnight incubation half of the plates was infected with wild-type H-1 PV at MOI of 1 plaque forming unit (pfu)/cell, the other half kept untreated. All cells were then treated with 5 concentrations of each of the 1,443 compounds (5-point dose curve incorporating a […] dilution step in duplicates, range 4-0.156 μM). […] PrestoBlue® is a cell viability indicator by using the reducing power of living cells to quantitatively measure the proliferation of cells. […] Conversion is proportional to the number of metabolically active cells and therefore can be measured quantitatively. Quantitation of fluorescent signal intensity of the cell culture supernatant was carried out using the HTS-ready Berthold MITHRAS LB 940 fluorescent plate reader at excitation and emission wavelengths of 569/586 nm (reduced resazurin form resorufin). […]

For data set [2], the system named is different cancer cell lines of different origins. Conditions: in vitro, in combination with H-1PV; cited from earlier work.
In data set [3] the test system is xenograft rat model of human pancreatic carcinoma. Conditions: in vivo, in combination with H-1PV; cited from earlier work.
The subject of data set [4] is SNB-19, U-373 and AsPC-1 cell lines. Description: Optical microscopy analysis (IncuCyte ZOOM) of morphological/cytopathic effects. The class given is cell-based, human. Conditions: 4 μM LDV and/or H-1PV MOI 1 (SNB-19) or 100 (U-373, AsPC-1); 4 days (96 h) post-treatment. Here is the method:
Two glioblastoma cell lines (SNB-19 and U-373) and a pancreatic cell line (AsPC-1) displaying different susceptibility to H-1 PV infection were treated (or not) with increasing amounts of H-1PV (MOI, pfu/cell) in the presence or absence of 4 μM LDV.
The cancer cell lines indicated in FIG. 3 were plated at the same density. After 24 h, cells were infected (or not) with H-1 PV used at the MOI (pfu/cell) of 1 (SNB-19), or 100 (U-373 and AsPC-1) in combination (or not) with 4 μM LDV. Light microscopy images were acquired using the IncuCyte ZOOM™ live cell imaging system (Essen BioScience, MI USA) at 96 h after treatment.

Data set [5] concerns AsPC-1 cells. The experiment in a line: Real-time detection of cell viability and proliferation (xCELLIgence). Conditions: LDV (1 and 4 μM) and/or H-1PV (up to MOI 100 pfu/cell), monitored for 150 hours. The class given is cell-based, human. Here is the method:
(§1) Human cancer cells were seeded into a 96-well E-plate (ACEA Biosciences, San Diego, CA, USA) at a density of 4000 cells/well. After 24 h, cells were infected or not with H-1PV and grown in the presence or absence of LDV. Growth of mock treated cells and virus infected cells was monitored in real-time every 30 min, for 6 days using the xCELLIgence System (ACEA). Cell proliferation was expressed as normalized cell index (CI), a parameter directly proportional to the number of attached cells per well and, therefore, strictly correlated with cell proliferation and viability. The growth curves represent the averages of the results of at least three replicates
(§2) The xCELLIgence system allows the monitoring in real time of cell proliferation and viability. This system was used to confirm the anti-cancer effect of H-1PV/LDV co-treatment. Three cancer cell lines were used for these experiments, namely glioma cell lines […], and pancreatic carcinoma cell line AsPC-1. Cells were treated (or not) with H-1PV in the presence or absence of LDV. Cell proliferation was monitored every 30 min for a total of 150 hours.
(§3) Cancer cells were seeded in a 96-well E-plate. […] Cell proliferation was monitored in real-time using the xCELLIgence system. The values in FIG. 4 are expressed as normalized cell index and plotted against time. […]

For data set [6], the system named is SNB-19 cells. The data set is described as above. As to conditions: LDV and/or H-1PV, monitored every 30 min for 150 hours. Type of data set: cell-based, human. Here is the method:
as §1, §2, §3

For data set [7], the system named is SNB-19 (glioma), AsPC-1 (pancreatic carcinoma), and PC3 (prostate cancer) cell lines. The experiment in a line: LDH assay of treatment-induced cell lysis (Example 4). Type of data set: cell-based, human. Conditions: H-1PV and/or increasing concentrations of LDV; 120 h (SNB19) or 96 h (AsPC1, PC3). The method, then: (§4) In an lactate dehydrogenase assay (LDH assay) LDH released from a cell, e.g. due to cell lysis, oxidizes lactate to generate NADH, which then in turn reacts with a colorimetric substrate to generate a quantifiable colour change, which is directly correlated to the amount of LDH released and can, as such, used as a measure of cell lysis.
(§5) Cancer cell lines were seeded at a density of 3,000 (U-251, BxPC-3, Panc-1, DU-145, A-549, HOP-62 and Caki-1) or 4,000 (SNB-19, AsPC-1, PC3 and U-373) cells/well in 96-well plates in 50 μl of their respective culture medium supplemented with 10% heat inactivated FBS. After 24 h, 50 μl of FBS-free medium with or without H-1PV and/or Ledipasvir (LDV; Selleck Chemicals LLC, Houston, TX, USA) was added. Cells were incubated for 3-5 days and then subjected to […] LDH assay (CytoTox 96 non-radioactive cytotoxicity assay, Promega Madison, WI, USA), according to the manufacturer's instructions. For each condition tested, six replicates were prepared of which three were used for calculating the total lysis in the presence of detergent as previously described (25).
To further confirm the results shown in Examples 1-3, the oncolytic activity of H-1PV/LDV combination, was analysed by LDH assays. […]

The test system of data set [8] is U-373 glioma cells. Description: LDH assay of treatment-induced cell lysis (Example 5). As to conditions: 4 μM LDV and/or increasing viral MOIs, 96 h. The class given is cell-based, human. Here is the method: as §4, §5
U-373 glioma cells treated (or not) with 4 μM LDV were infected (or not) with increasing viral MOIs (pfu/cell) and treatment-induced cell lysis was assessed by LDH assay.
U373 glioma cells, were grown for 24 h before being treated for 96 h as indicated. […]

In data set [9] the test system is U-251, BxPC-3, Panc-1, Du-145, A-549, Hop-62 and Caki-1 cancer cell lines. Description: LDH assay of treatment-induced cell lysis (Example 6). Type of data set: cell-based, human. As to conditions: LDV, H-1PV or both, 96 h, seven cancer cell lines. The method, then:
as §4, §5
H-1 PV can target and kill a broad spectrum of cancer cell lines from different tumour entities. […] Treatment-induced cell lysis was analysed by LDH assay. […]

Consider `CN(C)CC[C@H](CSc1ccccc1)Nc1ccc(S(=O)(=O)NC(=O)c2ccc(N3CCN(Cc4ccccc4-c4ccc(Cl)cc4)CC3)cc2)cc1[N+](=O)[O-]` [ABT-737], for which the “interaction with H-1PV: fold increase in H-1PV cytotoxicity (PrestoBlue)” value in data set [1] is reported as “synergized with H-1PV”. Further, the “enhancement of H-1PV oncotoxicity” value in data set [2] and in data set [3] was “enhance H-1PV oncotoxicity in a synergistic manner” in each case.
Regarding `Oc1ccc(O)cc1` [Hydroquinone], in data set [1], the “interaction with H-1PV: fold increase in H-1PV cytotoxicity (PrestoBlue)” value was “did not interact with H-1 PV”.
Take `COC(=O)N[C@H](C(=O)N1CC2(CC2)C[C@H]1c1ncc(-c2ccc3c(c2)C(F)(F)c2cc(-c4ccc5nc([C@@H]6[C@H]7CC[C@H](C7)N6C(=O)[C@@H](NC(=O)OC)C(C)C)[nH]c5c4)ccc2-3)[nH]1)C(C)C` [LDV, methyl N-[(2S)-1-[(6S)-6-[5-[9,9-difluoro-7-[2-[(1R,3S,4S)-2-[(2S)-2-(methoxycarbonylamino)-3-methylbutanoyl]-2-azabicyclo[2.2.1]heptan-3-yl]-3H-benzimidazol-5-yl]fluoren-2-yl]-1H-imidazol-2-yl]-5-azaspiro[2.4]heptan-5-yl]-3-methyl-1-oxobutan-2-yl]carbamate]: the “cytotoxic / cytopathic effects and morphological changes” value in [4] is reported as “did not induce any evident cytotoxic effects”. The “cell proliferation and viability (normalized cell index)” value in data set [5] and in [6] was “did not affect cell proliferation” in each case. For the same molecule, the figures for the “treatment-induced cell lysis (LDH)” value in data set [7], in data set [8] and in data set [9] were “did not induce cell lysis”, “did not induce cell lysis” and “did not induced cell lysis”, respectively.
